Source: patent US20150038435A1, “N-TERMINALLY MODIFIED OLIGOPEPTIDES AND USES THEREOF” (Novo Nordisk A/S, priority 2012, published 2015)
Several values for one entry are separate records, joined by “and”; a condition that tells them apart may be missing. Equal values may be shown once. Non-standard residues stand in square brackets, D forms with d. Residues, ends and D or L forms follow the SMILES beside them. *: point of attachment. Lauroyl = CCCCCCCCCCCC(=O)*

Legend:
[1] = Rat PK following intraintestinal injection; format: in vivo; settings: of insulin, 60 nmol/kg intraintestinal, Composition 3: 3% compound, propylene glycol, diglycerol caprylate, Tween 20
Procedure: Anaesthetized rats were dosed intraintestinally (into jejunum) with reference compounds and N-terminally acylated peptide or oligopeptides of the invention. Plasma concentrations of the employed compounds as well as changes in blood glucose were measured at specified intervals for 4 hours or more post-dosing. Pharmacokinetic parameters were subsequently calculated using WinNonLin Professional (Pharsight Inc., Mountain View, Calif., USA).
The compositions for the intraintestinal injection model were prepared for example according to the following composition (in weight %):
The anesthetized rat was placed on a homeothermic blanket stabilized at 37° C. A 20 cm polyethylene catheter mounted a 1-ml syringe was filled with insulin composition or vehicle. A 4-5 cm midline incision was made in the abdominal wall. […]
Blood samples for the determination of whole blood glucose concentrations were collected in heparinised 10 μl capillary tubes by puncture of the capillary vessels in the tail tip. Blood glucose concentrations were measured after dilution in 500 μl analysis buffer by the glucose oxidase method using a Biosen autoanalyzer (EKF Diagnostic Gmbh, Germany). […]
Samples were collected for determination of the plasma insulin concentration. […] Plasma concentrations of the insulin analogues were measured in a immunoassay. […]

GI juice = experiment: Inhibition of GI juice degradation of insulin analogue and GLP-1 analogue; format: biochemical; settings: compound 1 mM, rat GI juice
Procedure: 96 well plates were coated by incubating with 0.4% Bovine serum albumin (BSA) solution for minimum of 60 min. […] 1% TFA), 30 μl of a substrate (100 μM insulin analogue or GLP-1 analogue in buffer) and 30 μl of N-terminally acylated peptide or oligopeptide of the invention (10 mM) were added. The plates were pre-incubated (before adding GI juice) for 60 min at 37° C. After addition of 30 μl of GI juice (10-times diluted in buffer), the plates were incubated for 60 min/37° C. on shaker. […] 1% TFA and spun down in plates (4500 rpm for 10 min). Samples were diluted 5 times with the buffer prior to LC-MS analysis. Standard samples (0.1, 0.5, 1.0, 5.0, 10.0 μM) were prepared and treated as the samples. Standard curve was analysed both at the beginning and the end of the sequence. Two replicates of each tested conditions were included. Ion suppression was assessed by analyzing a standard at 1 μM and at 10 μM with 1 mM inhibitor present. Intact insulin or GLP-1 analoues were determined at each sample. The results were plotted against the incubation time. […] The half-lives were expressed relative to the half-live of the insulin or GLP-1 analogue without inhibitor present by dividing the half-lives obtained in the presence of inhibitor with those obtained in the absence of inhibitors. GI juice was prepared from male Sprague Dawley rats (200-250 g) by excising approximately 20 cm piece of mid jejunum and rinsing the inside with 2.5 ml 0.9% sodium chloride solution. The sodium chloride solution was collected in a centrifuge tube, pooled from all rats (20) and centrifuged at 4500 rpm./10 min/4° C. The supernatant was aliquoted in tubes and stored at −80° C.
A14E, B25H, B29K(N(eps)Octadecanedioyl-γGlu-OEG-OEG), desB30 human insulin and N-epsilon26-[2-(2-{2-[2-(2-{2-[(S)-4-Carboxy-4-(17-carboxyheptadecanoylamino)-butyrylamino]ethoxy}ethoxy)acetylamino]ethoxy}ethoxy)acetyl][Aib8,Arg34]GLP-1-(7-37) were used as standards in this assay.
For experiments repeated more than two times, standard deviation is given

Chymotrypsin = experiment: Inhibition of enzymatic degradation of a chromogenic substrate (Example 202); format: biochemical; settings: substrate N-succinyl-Ala-Ala-Pro-Phe-p-Nitroanilide
Source text: The use of chromogenic substrates to monitor activity of proteolytic enzymes is known in the field (for example DelMar, E. G., et al., Anal. Biochem., 99, 316-320, (1979)). For example, N-succinyl-Ala-Ala-Pro-Phe-p-Nitroanilide is commonly used substrate for measuring chymotrypsin activity. Enzymatic cleavage of 4-nitroanilide substrates yields 4-nitroaniline (yellow color under alkaline conditions).
An assay following the increase in absorbance at 395 nm as a function of time was established in 96 well format using Varioskan Flash Multimode Meter (Thermo Scientific). Each well contained 70 μl of Dulbecco's phosphate buffer saline (Invitrogen catalogue #14190-094), 10 μl of N-succinyl-Ala-Ala-Pro-Phe-p-Nitroanilide (Sigma cat# S 7388) in DMSO (different concentrations were used in order to obtain the inhibition constant), 10 μl of N-terminally acylated peptide or oligopeptide of the invention in varying concentration and 10 μl of a stock solution of an enzyme (chymotrypsin, trypsin, elastase, etc.). The incubations were performed at 37° C. Absorbance at 395 nm was measured immediately after addition of the enzyme to the 96 well plate and also every minute for the next 80 minutes. The concentration of the enzyme was optimized to allow determination of slopes for the time course of initial absorbance increase with and without added inhibitors. The slopes were determined by linear regression of the linear part of the fluorescence trace (for example, the first 10 min of the reaction). Each assay was performed in duplicate and average of the two traces was included in the calculations. The relative effect of N-terminally acylated peptide or oligopeptides of the invention on enzymatic degradation of N-succinyl-Ala-Ala-Pro-Phe-p-Nitroanilide was obtained by comparison of the slopes achieved by the same concentration of the N-terminally acylated peptide or oligopeptides. […] This was done by plotting the slopes achieved with different concentrations of the N-terminally acylated peptide or oligopeptides of the invention as a function of their concentrations and fitting the experimental results using, for example, sigmoidal logistic regression (2 parameters, Sigma Plot v 11). Inhibition constants for the interaction between the N-terminally acylated peptide or oligopeptides of the invention and proteolytic enzymes were also obtained by performing the assay described above with varying concentrations of the inhibitor and substrate and analyzing the results, for example, by double reciprocal transformation as known to the person skilled in the art and described for example in Hubalek, F. et al., J. Med. Chem. 47, 1760-1766 (2004).

CCCCCCCCCCCC(=O)N[C@H](C)C(=O)N[C@H](C)C(=O)N1CCC[C@@H]1C(=O)N[C@H](Cc1ccccc1)C(=O)O [Example 1, N-dodecanoyl-DAla-DAla-DPro-DPhe-OH] (Lauroyl-[dA][dA][dP][dF]-OH)
Bioavailability [1]: 4.5 ± 2.7% | Half Life fold increase (over solution w/o N-terminally acylated (oligo)peptide) (GI juice): 5.0 | Half Life of insulin analogue (GI juice; 37° C.): 13.0 min

CCCCCCCCCCCC(=O)N[C@@H](C)C(=O)N[C@@H](C)C(=O)N1CCC[C@H]1C(=O)N[C@@H](Cc1ccccc1)C(=O)O [Example 34, N-dodecanoyl-Ala-Ala-Pro-Phe-OH] (Lauroyl-AAPF-OH)
Ki (Chymotrypsin; chymotrypsin): ~130 µM and ~150 µM | kind of enzyme inhibition (Chymotrypsin; chymotrypsin): competitive inhibition | Ki (Chymotrypsin): 130 µM
